The target in data set [1] is T1, recombinant full-length WRN protein (1-1432) (Homo sapiens, UniProt Q14191).
T1 construct: recombinant full-length WRN protein (1-1432)
Briefly: WRN unwinding activity, fluorogenic 384-well assay (Example A). The data set is classed as biochemical. As to conditions: WRN unwinding activity, 4 hr; Table 2; read-out: 4 hr UNW pIC50 (converted). The essentials: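 Read-out is end-point unwinding of a fluorophore/quencher duplex (ex 525, em 598 nm) after 60 min with 200 μM ATP and 12 nM DNA (2× stocks), EDTA stop. Compound first sat 4 h with 200 pM WRN (2× stock) in pH 8.0 Tris buffer; four-parameter fit gives pIC50.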

Data set [2] in a line: Cell culture media unbound percentage and stability by rapid equilibrium dialysis (Example C). The data set is classed as in vitro ADME. As to conditions: bovine, cell assay medium (RPMI-1640 with 10% fetal bovine serum), pH 7.4, rapid equilibrium dialysis, 4 hours at 37° C., read-out: Cell Culture Media Binding (% unbound). The essentials: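 Percent unbound in cell assay medium came from the LC-MS/MS receiver:donor peak area ratio, with stability taken as the 240 min over 0 min ratio. Set-up: 1 μM nominal compound in medium dialysed against pH 7.4 PBS (100 mM phosphate, 150 mM NaCl), 4 h, 37° C, shaken, in triplicate.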

For data set [3], the system named is SW48 human colorectal cancer cells. Briefly: Calculated free drug potency in SW48 cell assay, corrected with media free fraction (Example C). The data set is classed as cell-based. The conditions noted are these: Homo sapiens, SW48, SW48 pCC50 corrected with measured free fraction in cell assay media. The procedure, abridged: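 Free drug potency derives from correcting SW48 assay concentrations with the unbound fraction in medium. That fraction came from RED against pH 7.4 PBS, 1 μM nominal compound, 4 h at 37 °C, quantified by LC-MS/MS peak area ratios at T=240 versus T=0 min.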

The subject of data set [4] is SW48 human colorectal cancer cells (MSI-H cancer cells). Briefly: SW48 cell viability, CellTiter-Glo, 120 hours (Example B). The conditions noted are these: Homo sapiens.
Where [5] appears, read: SW48, 120 h, read-out: SW48 pCC50, SW48 cell viability, 120 hours incubation (converted), Table 2.
[6] abbreviates: SW48, read-out: SW48 pCC50, measured potency from Example B, as repeated in Table 3 (converted).

Where a name gives a salt, the structure may show the parent alone. Read-outs that look alike come from different tables or passages of the source.

T1 sequence (Q14191 whole entry): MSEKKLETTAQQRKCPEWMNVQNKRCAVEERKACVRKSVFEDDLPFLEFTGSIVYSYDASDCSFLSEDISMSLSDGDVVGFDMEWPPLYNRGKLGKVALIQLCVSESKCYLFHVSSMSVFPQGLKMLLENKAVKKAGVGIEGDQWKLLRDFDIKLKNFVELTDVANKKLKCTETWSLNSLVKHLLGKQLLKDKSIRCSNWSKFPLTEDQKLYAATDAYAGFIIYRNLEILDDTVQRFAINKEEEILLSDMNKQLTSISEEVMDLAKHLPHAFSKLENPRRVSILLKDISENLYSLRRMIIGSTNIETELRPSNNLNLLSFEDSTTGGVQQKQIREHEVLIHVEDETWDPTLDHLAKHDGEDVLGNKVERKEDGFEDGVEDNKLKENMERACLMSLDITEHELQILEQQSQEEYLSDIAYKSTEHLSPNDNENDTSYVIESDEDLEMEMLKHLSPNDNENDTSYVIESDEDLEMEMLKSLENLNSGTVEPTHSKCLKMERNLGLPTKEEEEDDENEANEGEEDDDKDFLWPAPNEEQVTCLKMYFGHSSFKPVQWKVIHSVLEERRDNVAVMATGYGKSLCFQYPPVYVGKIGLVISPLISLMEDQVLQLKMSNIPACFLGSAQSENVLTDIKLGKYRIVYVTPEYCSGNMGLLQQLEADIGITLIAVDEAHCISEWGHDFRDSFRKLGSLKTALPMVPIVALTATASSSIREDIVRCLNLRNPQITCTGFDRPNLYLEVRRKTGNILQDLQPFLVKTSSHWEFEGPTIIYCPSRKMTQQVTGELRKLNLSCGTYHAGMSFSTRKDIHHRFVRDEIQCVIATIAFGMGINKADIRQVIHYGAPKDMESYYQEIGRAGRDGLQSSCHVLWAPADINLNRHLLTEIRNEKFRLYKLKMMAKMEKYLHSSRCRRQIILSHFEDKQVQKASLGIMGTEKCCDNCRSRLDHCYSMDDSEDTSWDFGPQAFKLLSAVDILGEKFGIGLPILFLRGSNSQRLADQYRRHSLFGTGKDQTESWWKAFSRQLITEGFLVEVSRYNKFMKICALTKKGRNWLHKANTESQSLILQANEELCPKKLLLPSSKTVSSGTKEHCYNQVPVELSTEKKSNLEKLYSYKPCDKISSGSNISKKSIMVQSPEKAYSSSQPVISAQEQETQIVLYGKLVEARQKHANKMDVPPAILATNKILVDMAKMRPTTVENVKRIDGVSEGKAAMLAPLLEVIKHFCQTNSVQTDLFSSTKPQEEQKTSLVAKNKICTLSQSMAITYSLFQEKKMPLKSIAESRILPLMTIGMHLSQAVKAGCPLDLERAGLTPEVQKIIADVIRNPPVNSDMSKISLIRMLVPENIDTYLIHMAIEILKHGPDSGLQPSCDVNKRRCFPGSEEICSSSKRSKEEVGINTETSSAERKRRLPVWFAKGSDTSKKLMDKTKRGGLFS

As to `Cc1nc2cc(S(=O)(=O)N(C)c3ccc([C@H]4CCC[C@@H](C(=O)N[C@H]5CC[C@H](C(C)C)CC5)[C@@H]4C(=O)O)cc3)ccc2n1C` [Example 180, (1R,2R,6S)-2-(((1r,4R)-4-isopropylcyclohexyl)carbamoyl)-6-(4-((N,1,2-trimethyl-1H-benzo[d]imidazole)-5-sulfonamido)phenyl)cyclohexane-1-carboxylic acid], the IC50 in data set [1] was 3.98 nM. For the same compound, in data set [2], the fraction unbound at 4 h, 1 µM was 0.0357. Also, the CC50 in data set [3] was 22.4 nM; in data set [4] (setting [5]), 631 nM; in data set [4] (setting [6]), 631 nM.
As for `Cc1nc2cc(S(=O)(=O)N(C)c3ccc([C@H]4CCC[C@@H](C(=O)Nc5ccc(C(C)(C)O)cc5F)[C@@H]4C(=O)O)cc3)ccc2n1C` [Example 181, (1R,2R,6S)-2-((2-fluoro-4-(2-hydroxypropan-2-yl)phenyl)carbamoyl)-6-(4-((N,1,2-trimethyl-1H-benzo[d]imidazole)-5-sulfonamido)phenyl)cyclohexane-1-carboxylic acid], the IC50 in data set [1] was 1.58 nM. For the same compound, the fraction unbound at 4 h, 1 µM in data set [2] was determined as 0.303. The results for the CC50 in data set [3], in data set [4] (setting [5]) and in data set [4] (setting [6]) were 603 nM, 2000 nM and 2000 nM, respectively.
For the compound `Cc1nc2cc(S(=O)(=O)N(C)c3ccc([C@H]4CCC[C@@H](C(=O)Nc5ccc6c(c5)CC(F)(F)C6)[C@@H]4C(=O)O)cc3)ccc2n1C` [Example 194, (1R,2R,6S)-2-((2,2-difluoro-2,3-dihydro-1H-inden-5-yl)carbamoyl)-6-(4-((N,1,2-trimethyl-1H-benzo[d]imidazole)-5-sulfonamido)phenyl)cyclohexane-1-carboxylic acid], the IC50 in data set [1] was 7.94 nM. Moreover, the fraction unbound at 4 h, 1 µM in data set [2] was 0.114. The CC50 was 1150 nM in data set [3] and 10000 nM in data set [4] (setting [5]).
Turning to `CCc1ccc(NC(=O)[C@@H]2CCC[C@H](c3ccc(N(C)S(=O)(=O)c4ccc5c(c4)nc(C)n5C)cc3)[C@H]2C(=O)O)cc1` [Example 196, (1R,2R,6S)-2-((4-ethylphenyl)carbamoyl)-6-(4-((N,1,2-trimethyl-1H-benzo[d]imidazole)-5-sulfonamido)phenyl)cyclohexane-1-carboxylic acid], the IC50 in data set [1] was 3.16 nM. Moreover, the fraction unbound at 4 h, 1 µM in data set [2] turned out to be 0.0606. Also, the CC50 in data set [3] was 95.5 nM; in data set [4] (setting [5]), 1580 nM; in data set [4] (setting [6]), 1580 nM.
For `Cc1nc2cc(S(=O)(=O)N(C)c3ccc([C@H]4CCC[C@@H](COc5ccc(C(F)(F)F)cc5O)[C@@H]4C(=O)O)cc3)ccc2n1C` [Example 206, (1R,2R,6S)-2-((2-hydroxy-4-(trifluoromethyl)phenoxy)methyl)-6-(4-((N,1,2-trimethyl-1H-benzo[d]imidazole)-5-sulfonamido)phenyl)cyclohexane-1-carboxylic acid], the IC50 in data set [1] was 15.8 nM. Moreover, the fraction unbound at 4 h, 1 µM in data set [2] came to 0.0032. Moreover, the values for the CC50 in data set [3], in data set [4] (setting [5]) and in data set [4] (setting [6]) were 12.9 nM, 3980 nM and 3980 nM, respectively.
As for `Cc1nc2cc(S(=O)(=O)N(C)c3ccc([C@H]4CCC[C@@H](COc5ccc(C(F)(F)F)cc5)[C@@H]4C(=O)O)cc3)ccc2n1CCN(C)C` [Example 219, (1R,2S,6R)-2-(4-((1-(2-(dimethylamino)ethyl)-N,2-dimethyl-1H-benzo[d]imidazole)-5-sulfonamido)phenyl)-6-((4-(trifluoromethyl)phenoxy)methyl)cyclohexane-1-carboxylic acid], the IC50 in data set [1] is 5.01 nM. Moreover, the fraction unbound at 4 h, 1 µM in data set [2] worked out at 0.0031. Further, the figures for the CC50 in data set [3], in data set [4] (setting [5]) and in data set [4] (setting [6]) were 19.5 nM, 6310 nM and 6310 nM, respectively.
For `CN(c1ccc([C@H]2CCC[C@@H](C(=O)Nc3ccc(C(F)(F)F)cc3F)[C@@H]2C(=O)O)cc1)S(=O)(=O)c1cccc(C2CCNCC2)c1` [Example 261, (1R,2R,6S)-2-((2-fluoro-4-(trifluoromethyl)phenyl)carbamoyl)-6-(4-((N-methyl-3-(piperidin-4-yl)phenyl)sulfonamido)phenyl)cyclohexane-1-carboxylic acid], the IC50 in data set [1] is 1.58 nM. For the same compound, the fraction unbound at 4 h, 1 µM in data set [2] was determined as 0.311. Further, the figures for the CC50 in data set [3], in data set [4] (setting [5]) and in data set [4] (setting [6]) were 309 nM, 1000 nM and 1000 nM, respectively.
Turning to `CN(c1ccc([C@H]2CCC[C@@H](C(=O)Nc3ccc(C(F)(F)F)cc3F)[C@@H]2C(=O)O)cc1)S(=O)(=O)c1cccc([C@@H]2CCCNC2)c1` [Example 262, (1R,2R,6S)-2-((2-fluoro-4-(trifluoromethyl)phenyl)carbamoyl)-6-(4-((N-methyl-3-((S)-piperidin-3-yl)phenyl)sulfonamido)phenyl)cyclohexane-1-carboxylic acid], the IC50 in data set [1] was 1.58 nM. Moreover, the fraction unbound at 4 h, 1 µM in data set [2] came out at 0.241. The CC50 in data set [3] was 240 nM; in data set [4] (setting [5]) it was 1000 nM; in data set [4] (setting [6]), 1000 nM.
`CN(c1ccc([C@H]2CCC[C@@H](C(=O)Nc3ccc(C(F)(F)F)cc3F)[C@@H]2C(=O)O)cc1)S(=O)(=O)c1cccc([C@H]2CCCNC2)c1` [Example 263]: the IC50 in data set [1] is 1.58 nM. In addition, the fraction unbound at 4 h, 1 µM in data set [2] amounted to 0.278. For the same compound, the CC50 is 55 nM in data set [3], 200 nM in data set [4] (setting [5]) and 200 nM in data set [4] (setting [6]).
As for `CN1CCN(c2cc(S(=O)(=O)N(C)c3ccc([C@H]4CCC[C@@H](C(=O)Nc5ccc(C(F)(F)F)cc5F)[C@@H]4C(=O)O)cc3)cc3ccoc23)CC1` [Example 265, (1R,2R,6S)-2-((2-fluoro-4-(trifluoromethyl)phenyl)carbamoyl)-6-(4-((N-methyl-7-(4-methylpiperazin-1-yl)benzofuran)-5-sulfonamido)phenyl)cyclohexane-1-carboxylic acid], the IC50 in data set [1] is 6.31 nM. The fraction unbound at 4 h, 1 µM in data set [2] turned out to be 0.115. In addition, the CC50 in data set [3] is 91.2 nM; in data set [4] (setting [5]), 794 nM; in data set [4] (setting [6]), 794 nM.
Take `CN(c1ccc([C@H]2CCC[C@@H](C(=O)Nc3ccc(C(F)(F)F)cc3F)[C@@H]2C(=O)O)cc1)S(=O)(=O)c1ccc2c(c1)nc(N)n2C` [Example 266, (1R,2S,6R)-2-(4-((2-amino-N,1-dimethyl-1H-benzo[d]imidazole)-5-sulfonamido)phenyl)-6-((2-fluoro-4-(trifluoromethyl)phenyl)carbamoyl)cyclohexane-1-carboxylic acid]: the IC50 in data set [1] is 1.26 nM. Moreover, in data set [2], the fraction unbound at 4 h, 1 µM is 0.141. Also, the CC50 in data set [3] is 56.2 nM; in data set [4] (setting [5]), 398 nM; in data set [4] (setting [6]) it was 398 nM.
For the compound `CN(c1ccc([C@H]2CCC[C@@H](C(=O)Nc3ccc(C(F)(F)F)cc3F)[C@@H]2C(=O)O)cc1)S(=O)(=O)c1ccc2c(c1)nc(CCN)n2C` [Example 267, (1R,2S,6R)-2-(4-((2-(2-aminoethyl)-N,1-dimethyl-1H-benzo[d]imidazole)-5-sulfonamido)phenyl)-6-((2-fluoro-4-(trifluoromethyl)phenyl)carbamoyl)cyclohexane-1-carboxylic acid hydrochloride], in data set [1], the IC50 was 1 nM. Also, the fraction unbound at 4 h, 1 µM in data set [2] amounted to 0.226. Moreover, the CC50 in data set [3] is 178 nM; in data set [4] (setting [5]) it was 794 nM; in data set [4] (setting [6]), 794 nM.
On to `CN(C)CCc1nc2cc(S(=O)(=O)N(C)c3ccc([C@H]4CCC[C@@H](C(=O)Nc5ccc(C(F)(F)F)cc5F)[C@@H]4C(=O)O)cc3)ccc2n1C` [Example 272, (1R,2S,6R)-2-(4-((2-(2-(dimethylamino)ethyl)-N,1-dimethyl-1H-benzo[d]imidazole)-5-sulfonamido)phenyl)-6-((2-fluoro-4-(trifluoromethyl)phenyl)carbamoyl)cyclohexane-1-carboxylic acid], for which the IC50 in data set [1] is 1.58 nM. Also, the fraction unbound at 4 h, 1 µM in data set [2] is 0.236. Moreover, the CC50 in data set [3] was 37.2 nM; in data set [4] (setting [5]), 158 nM; in data set [4] (setting [6]) it was 158 nM.
In the case of `CN(c1ccc([C@H]2CCC[C@@H](COc3ccc(C(F)(F)F)cc3)[C@@H]2C(=O)O)cc1)S(=O)(=O)c1ccc2c(c1)nc(CCN)n2C` [Example 273], the IC50 in data set [1] is 5.01 nM. For the same compound, the fraction unbound at 4 h, 1 µM in data set [2] was found to be 0.0082. Further, the CC50 in data set [3] was 64.6 nM; in data set [4] (setting [5]) it was 7940 nM; in data set [4] (setting [6]), 7940 nM.
For the compound `CN(C)CCc1nc2cc(S(=O)(=O)N(C)c3ccc([C@H]4CCC[C@@H](COc5ccc(C(F)(F)F)cc5)[C@@H]4C(=O)O)cc3)ccc2n1C` [Example 275], the IC50 in data set [1] is 2 nM. For the same compound, the fraction unbound at 4 h, 1 µM in data set [2] stood at 0.0083. For the same compound, the CC50 was 41.7 nM in data set [3], 5010 nM in data set [4] (setting [5]) and 5010 nM in data set [4] (setting [6]).

These data come from patent US12662451B2, “Chemical compounds and uses thereof” (GLAXOSMITHKLINE INTELLECTUAL PROPERTY (NO.4) LIMITED, priority 2023, dated 2026).
